# Key:
# [1] = Coadministration of ripretinib with a strong CYP3A inhibitor (itraconazole): exposure; assay type: in vivo; conditions: coadministration of ripretinib with itraconazole (strong CYP3A inhibitor and P-gp inhibitor)
# [2] = Coadministration of ripretinib with a proton-pump inhibitor (pantoprazole): exposure; assay type: in vivo; conditions: for differences in plasma exposure: ripretinib coadministered with pantoprazole
# Description: The effect of a proton-pump inhibitor on the exposure of ripretinib was evaluated.
# [3] = Food effect (high-fat meal) on ripretinib and Compound A exposure; assay type: in vivo; conditions: for AUC0-24h higher by / Cmax higher by: ripretinib 150 mg dose with a high-fat meal
# Description: The effect of a high-fat breakfast on ripretinib and Compound A exposure was evaluated. A high fat meal consisted of approximately 150, 250, and 500-600 calories from protein, carbohydrate, and fat, respectively. […] Therefore, ripretinib may be taken with or without food at approximately same time each day.
# patients with melanoma = assay: Phase 1 study of treating melanoma with ripretinib (efficacy, RECIST 1.1); assay type: in vivo, human
# Description: This is a Phase 1 study to evaluate the efficacy of ripretinib in treating patients with melanoma. An efficacy cohort of 26 patients were enrolled. Each patient was administered 150 mg of ripretinib daily in repeated 28-day cycles until disease progression, unacceptable toxicity, or consent withdrawal. Patients who had disease progression at ripretinib 150 mg QD were allowed to escalate to 150 mg twice daily (BID) after the completion of Cycle 2. The efficacy endpoints includes Objective Response Rate (ORR), Disease Control Rate (DCR), Duration of Response (DOR) Time to Best Response (TBR), and progression-free survival (PFS) as determined by radiologic review using Response Evaluation Criteria in Solid Tumors (RECIST 1.1).
# Prior tyrosine kinase inhibitor (TKI) treatment analysis. […] 17 of the 25 members of the cohort received no prior TKI and, among these members, the mPFS was determined to be 10.2 months and the ORR was determined to be 29.4% (5 out of 17 members). 8 of the 25 members received TKI treatment prior to receiving ripretinib and, among these members, the mPFS was determined to be 2.9 months and the ORR was determined to be 11% (1 out of […] members).
# Mutational Analysis. An analysis of the efficacy of ripretinib based on baseline mutations of melanoma among the efficacy cohort was performed. […] L576P (Exon 11), K642E (Exon 13) and N822K/Y (Exon 17) were determined to be the most prevalent baseline mutations in this cohort.
# Solubility = assay type: physicochemical
# [4] = investigator assessment, Total (N = 26)
# [5] = investigator assessment, Total, n 6
smiles,measurement,setting,value
CCn1c(=O)c(-c2cc(NC(=O)Nc3ccccc3)c(F)cc2Br)cc2cnc(N)cc21 [Compound A],increase in AUC0-inf,[1],99%
same,increase in Cmax,[1],no change
same,differences in plasma exposure,[2],No clinically significant differences
same,AUC0-24h higher by,[3],47%
same,Cmax higher by,[3],66%
CCn1c(=O)c(-c2cc(NC(=O)Nc3ccccc3)c(F)cc2Br)cc2cnc(NC)cc21 [ripretinib],median PFS,"patients with melanoma; 150 mg daily, 28-day cycles, whole efficacy cohort",7.3 months
same,confirmed ORR,patients with melanoma; Exon 11 patients,44%
same,median PFS,patients with melanoma; Exon 11 patients,10.2 months
same,median duration of response,patients with melanoma; Exon 11 patients,10.5 months
same,median time to confirmed response,patients with melanoma; Exon 11 patients,1.9 months
same,confirmed ORR,patients with melanoma; Exon 17 patients,18%
same,median PFS,patients with melanoma; Exon 17 patients,13.6 months
same,median duration of response,patients with melanoma; Exon 17 patients,8.1 months
same,median time to confirmed response,patients with melanoma; Exon 17 patients,1.7 months
same,"Confirmed Partial Response, %",patients with melanoma; KIT Exon 11 (N = 9),(44.4) %
same,"No Response Assessment, %",patients with melanoma; KIT Exon 11 (N = 9),(11.1) %
same,"Progressive Disease, %",patients with melanoma; KIT Exon 11 (N = 9),(11.1) %
same,"Stable Disease (≥6 wks), %",patients with melanoma; KIT Exon 11 (N = 9),(33.3) %
same,"Progressive Disease, %",patients with melanoma; KIT Exon 13 (N = 4),(50.0) %
same,"Stable Disease (≥6 wks), %",patients with melanoma; KIT Exon 13 (N = 4),(50.0) %
same,"Confirmed Complete Response, %",patients with melanoma; KIT Exon 17 (N = 11),(9.1) %
same,"Confirmed Partial Response, %",patients with melanoma; KIT Exon 17 (N = 11),(9.1) %
same,"Progressive Disease, %",patients with melanoma; KIT Exon 17 (N = 11),(36) %
same,"Stable Disease (≥6 wks), %",patients with melanoma; KIT Exon 17 (N = 11),(45.5) %
same,"Progressive Disease, %",patients with melanoma; KIT Exon 18 (N = 1),100.0%
same,"Stable Disease (≥6 wks), %",patients with melanoma; KIT Exon Amplification (N = 1),100.0%
same,"Objective Response Rate, %","patients with melanoma; investigator assessment, Total",(23.1) %
same,"Time to Response, Median","patients with melanoma; investigator assessment, Total",1.9 Months
same,"Best Overall Response: Confirmed Complete Response, %",patients with melanoma; [4],(3.8) %
same,"Best Overall Response: Confirmed Partial Response, %",patients with melanoma; [4],(19.2) %
same,"Best Overall Response: No Response Assessment, %",patients with melanoma; [4],(4) %
same,"Best Overall Response: Progressive Disease, %",patients with melanoma; [4],(31) %
same,"Best Overall Response: Stable Disease (≥6 weeks duration), %",patients with melanoma; [4],(42.3) %
same,"Duration of Response, Max",patients with melanoma; [5],28.6 Months
same,"Duration of Response, Mean",patients with melanoma; [5],10.5 Months
same,"Duration of Response, Median",patients with melanoma; [5],9.1 Months
same,"Duration of Response, Min",patients with melanoma; [5],4.1 Months
same,mPFS,patients with melanoma; no prior TKI treatment,10.2 months
same,ORR,patients with melanoma; no prior TKI treatment (5 out of 17),29.4%
same,mPFS,patients with melanoma; prior TKI treatment,2.9 months
same,ORR,patients with melanoma; prior TKI treatment (1 out of 9),11%
same,confirmed ORR,"patients with melanoma; radiologic review using RECIST version 1.1, whole cohort (6 out of 26)",23.1%
same,confirmed and unconfirmed ORR,patients with melanoma; whole cohort,30.8%
same,median DOR (mDOR),patients with melanoma; whole cohort,9.1 months
same,increase in AUC0-inf,[1],99%
same,increase in Cmax,[1],36%
same,effect on ripretinib exposure,[2]; 40 mg QD pantoprazole with 150 mg QD ripretinib,did not affect ripretinib exposure
same,differences in plasma exposure,[2],No clinically significant differences
same,"food effect, clinical significance",[3]; based on exposure-response analysis,not considered to be clinically significant
same,AUC0-24h higher by,[3],30%
same,Cmax higher by,[3],22%
same,solubility,Solubility,pH-dependent solubility

# From patent US20240122906A1, “METHODS OF TREATING MELANOMA WITH RIPRETINIB” (Deciphera Pharmaceuticals, LLC, priority 2021, published 2024)
